Results: the supplement of paper PMC11208160

Assay: recombinant UMI read abundance after kanamycin selection (control-corrected) (log10(CPM+1)); higher = more efficient recombination; extreme values may be limits of the assay; sequences stand for … in AGTGCAGAGAAAATCGGCCAGTTTTCTCTGCCTGCAGTCCGCATGCCGTGGGACCCCTTGGGTTCTAACCTGTTGCCTAGATTTATGCAGCGGACTGCCTTTCTCCCAAAGTGATAAACCGG…AGGTTGGTTTCACT; site = the 11-nt donor
Method: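 Pooled E. coli donor-specificity screen for the IS621 bridge recombinase. Each library member carries a reprogrammed 11-nt donor and a full-length LE bridge RNA expressed in cis from the natural promoter, with a paired donor-binding loop (8-nt LDG + 4-nt RDG) and a target-binding loop fixed to T5. It is co-electroporated with a T5 target plasmid; recombinase is induced with 0.07 mM IPTG and recombinants are selected on kanamycin. UMIs are counted as CPM, averaged over two biological replicates and corrected by the unselected control. Molecule = full bridge RNA written as DNA, built from the T5 scaffold: LDG = donor specificity nt 1-8, RDG = reverse complement of nt 8-11.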
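Also: IS621 bridge recombinase in Escherichia coli cells against a fixed T5 target plasmid.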

Sequence: ACATTGCCATGGACCGGTTTTCCCGGTAATCCGTATTTGGG (site ACATTGCCTCC)
- recombinant UMI read abundance (log10): 0.0159

Sequence: ACATTGGCATGGACCGGTTTTCCCGGTAATCCGTATTTGTT (site ACATTGGCTAA)
- recombinant UMI read abundance (log10): 1.53

Sequence: ACCAATTCATGGACCGGTTTTCCCGGTAATCCGTATTTGCC (site ACCAATTCTGG)
- recombinant UMI read abundance (log10): 2.25

Sequence: ACCAATTCATGGACCGGTTTTCCCGGTAATCCGTATTTGCC (site CCCAATTCTGG)
- recombinant UMI read abundance (log10): 1.91

Sequence: ACCAATTCATGGACCGGTTTTCCCGGTAATCCGTATTTGCC (site GCCAATTCTGG)
- recombinant UMI read abundance (log10): 0.507

Sequence: ACCAATTCATGGACCGGTTTTCCCGGTAATCCGTATTTGCC (site TCCAATTCTGG)
- recombinant UMI read abundance (log10): 0.66

Sequence: ACCAGAACATGGACCGGTTTTCCCGGTAATCCGTATTTGAG (site ACAAGAACTCT)
- recombinant UMI read abundance (log10): 0

Sequence: ACCAGAACATGGACCGGTTTTCCCGGTAATCCGTATTTGAG (site ACCAGAACTCT)
- recombinant UMI read abundance (log10): 2.19

Sequence: ACCAGAACATGGACCGGTTTTCCCGGTAATCCGTATTTGAG (site ACGAGAACTCT)
- recombinant UMI read abundance (log10): 0

Sequence: ACCAGAACATGGACCGGTTTTCCCGGTAATCCGTATTTGAG (site ACTAGAACTCT)
- recombinant UMI read abundance (log10): 0.155

Sequence: ACCAGCTCATGGACCGGTTTTCCCGGTAATCCGTATTTGTC (site ACCAGCTCTGA)
- recombinant UMI read abundance (log10): 2.47

Sequence: ACCATATCATGGACCGGTTTTCCCGGTAATCCGTATTTGTC (site ACCATATCTGA)
- recombinant UMI read abundance (log10): 2.03

Sequence: ACCATATCATGGACCGGTTTTCCCGGTAATCCGTATTTGTC (site CCCATATCTGA)
- recombinant UMI read abundance (log10): 0

Sequence: ACCATATCATGGACCGGTTTTCCCGGTAATCCGTATTTGTC (site GCCATATCTGA)
- recombinant UMI read abundance (log10): 0

Sequence: ACCATATCATGGACCGGTTTTCCCGGTAATCCGTATTTGTC (site TCCATATCTGA)
- recombinant UMI read abundance (log10): 0

Sequence: ACCCAATCATGGACCGGTTTTCCCGGTAATCCGTATTTGGA (site ACCCAATCTTC)
- recombinant UMI read abundance (log10): 2.04

Sequence: ACCCACACATGGACCGGTTTTCCCGGTAATCCGTATTTGTA (site ACCCACACTTA)
- recombinant UMI read abundance (log10): 1.92

Sequence: ACCCACACATGGACCGGTTTTCCCGGTAATCCGTATTTGTA (site CCCCACACTTA)
- recombinant UMI read abundance (log10): 0.963

Sequence: ACCCACACATGGACCGGTTTTCCCGGTAATCCGTATTTGTA (site GCCCACACTTA)
- recombinant UMI read abundance (log10): 0.0193

Sequence: ACCCACACATGGACCGGTTTTCCCGGTAATCCGTATTTGTA (site TCCCACACTTA)
- recombinant UMI read abundance (log10): 0.408

Sequence: ACCCATTCATGGACCGGTTTTCCCGGTAATCCGTATTTGGA (site ACCCATTCTTC)
- recombinant UMI read abundance (log10): 1.53

Sequence: ACCCCAACATGGACCGGTTTTCCCGGTAATCCGTATTTGGT (site ACCCCAACTAC)
- recombinant UMI read abundance (log10): 0.756

Sequence: ACCCCATCATGGACCGGTTTTCCCGGTAATCCGTATTTGAT (site ACCCCATCTAT)
- recombinant UMI read abundance (log10): 1.23

Sequence: ACCCCGACATGGACCGGTTTTCCCGGTAATCCGTATTTGTG (site ACCCCGACTCA)
- recombinant UMI read abundance (log10): 0.965

Sequence: ACCCCTACATGGACCGGTTTTCCCGGTAATCCGTATTTGAA (site ACCCCTACTTT)
- recombinant UMI read abundance (log10): 1.06

Sequence: ACCCGCTCATGGACCGGTTTTCCCGGTAATCCGTATTTGCA (site ACCCGCTCTTG)
- recombinant UMI read abundance (log10): 2.9

Sequence: ACCCTCACATGGACCGGTTTTCCCGGTAATCCGTATTTGTA (site ACCCTCACTTA)
- recombinant UMI read abundance (log10): 0.59

Sequence: ACCCTTACATGGACCGGTTTTCCCGGTAATCCGTATTTGAG (site ACCCTTACTCT)
- recombinant UMI read abundance (log10): 1.66

Sequence: ACCCTTTCATGGACCGGTTTTCCCGGTAATCCGTATTTGAC (site AACCTTTCTGT)
- recombinant UMI read abundance (log10): 0

Sequence: ACCCTTTCATGGACCGGTTTTCCCGGTAATCCGTATTTGAC (site ACCCTTTCTGT)
- recombinant UMI read abundance (log10): 0

Sequence: ACCCTTTCATGGACCGGTTTTCCCGGTAATCCGTATTTGAC (site AGCCTTTCTGT)
- recombinant UMI read abundance (log10): 0

Sequence: ACCCTTTCATGGACCGGTTTTCCCGGTAATCCGTATTTGAC (site ATCCTTTCTGT)
- recombinant UMI read abundance (log10): 0

Sequence: ACCGAGACATGGACCGGTTTTCCCGGTAATCCGTATTTGGG (site ACCAAGACTCC)
- recombinant UMI read abundance (log10): 0.109

Sequence: ACCGAGACATGGACCGGTTTTCCCGGTAATCCGTATTTGGG (site ACCCAGACTCC)
- recombinant UMI read abundance (log10): 0.0111

Sequence: ACCGAGACATGGACCGGTTTTCCCGGTAATCCGTATTTGGG (site ACCGAGACTCC)
- recombinant UMI read abundance (log10): 0.621

Sequence: ACCGAGACATGGACCGGTTTTCCCGGTAATCCGTATTTGGG (site ACCTAGACTCC)
- recombinant UMI read abundance (log10): 0

Sequence: ACCGAGCCATGGACCGGTTTTCCCGGTAATCCGTATTTGAT (site ACCGAGCCTAT)
- recombinant UMI read abundance (log10): 1.13

Sequence: ACCGATACATGGACCGGTTTTCCCGGTAATCCGTATTTGAA (site ACCGATACTTT)
- recombinant UMI read abundance (log10): 1.6

Sequence: ACCGCTACATGGACCGGTTTTCCCGGTAATCCGTATTTGCC (site ACCGCTACTGG)
- recombinant UMI read abundance (log10): 1.75

Sequence: ACCGGACCATGGACCGGTTTTCCCGGTAATCCGTATTTGGC (site ACCGGACCTGC)
- recombinant UMI read abundance (log10): 0

Sequence: ACCGGTCCATGGACCGGTTTTCCCGGTAATCCGTATTTGCA (site ACCGGTCCTTG)
- recombinant UMI read abundance (log10): 0

Sequence: ACCGGTCCATGGACCGGTTTTCCCGGTAATCCGTATTTGCA (site CCCGGTCCTTG)
- recombinant UMI read abundance (log10): 0

Sequence: ACCGGTCCATGGACCGGTTTTCCCGGTAATCCGTATTTGCA (site GCCGGTCCTTG)
- recombinant UMI read abundance (log10): 0

Sequence: ACCGGTCCATGGACCGGTTTTCCCGGTAATCCGTATTTGCA (site TCCGGTCCTTG)
- recombinant UMI read abundance (log10): 0

Sequence: ACCGGTCCATGGACCGGTTTTCCCGGTAATCCGTATTTGTT (site ACCGGTCCTAA)
- recombinant UMI read abundance (log10): 0

Sequence: ACCTACGCATGGACCGGTTTTCCCGGTAATCCGTATTTGAA (site ACCTACGCTTT)
- recombinant UMI read abundance (log10): 1.09

Sequence: ACCTAGACATGGACCGGTTTTCCCGGTAATCCGTATTTGAG (site ACCTAGACTCA)
- recombinant UMI read abundance (log10): 0.226

Sequence: ACCTAGACATGGACCGGTTTTCCCGGTAATCCGTATTTGAG (site ACCTAGACTCC)
- recombinant UMI read abundance (log10): 0.241

Sequence: ACCTAGACATGGACCGGTTTTCCCGGTAATCCGTATTTGAG (site ACCTAGACTCG)
- recombinant UMI read abundance (log10): 0.352

Sequence: ACCTAGACATGGACCGGTTTTCCCGGTAATCCGTATTTGAG (site ACCTAGACTCT)
- recombinant UMI read abundance (log10): 1.17

Sequence: ACCTAGACATGGACCGGTTTTCCCGGTAATCCGTATTTGGT (site ACCTAGACTAC)
- recombinant UMI read abundance (log10): 0.0673

Sequence: ACCTAGACATGGACCGGTTTTCCCGGTAATCCGTATTTGGT (site ACCTAGACTCC)
- recombinant UMI read abundance (log10): 0.0175

Sequence: ACCTAGACATGGACCGGTTTTCCCGGTAATCCGTATTTGGT (site ACCTAGACTGC)
- recombinant UMI read abundance (log10): 0

Sequence: ACCTAGACATGGACCGGTTTTCCCGGTAATCCGTATTTGGT (site ACCTAGACTTC)
- recombinant UMI read abundance (log10): 0.0137

Sequence: ACCTCAGCATGGACCGGTTTTCCCGGTAATCCGTATTTGGG (site AACTCAGCTCC)
- recombinant UMI read abundance (log10): 0.0172

Sequence: ACCTCAGCATGGACCGGTTTTCCCGGTAATCCGTATTTGGG (site ACCTCAGCTCC)
- recombinant UMI read abundance (log10): 0.00849

Sequence: ACCTCAGCATGGACCGGTTTTCCCGGTAATCCGTATTTGGG (site AGCTCAGCTCC)
- recombinant UMI read abundance (log10): 0.0171

Sequence: ACCTCAGCATGGACCGGTTTTCCCGGTAATCCGTATTTGGG (site ATCTCAGCTCC)
- recombinant UMI read abundance (log10): 0.0291

Sequence: ACCTCGTCATGGACCGGTTTTCCCGGTAATCCGTATTTGAA (site ACCTCGTCTTT)
- recombinant UMI read abundance (log10): 0.5

Sequence: ACCTGAACATGGACCGGTTTTCCCGGTAATCCGTATTTGGC (site ACCTGAACTGC)
- recombinant UMI read abundance (log10): 1.39

Sequence: ACCTTGCCATGGACCGGTTTTCCCGGTAATCCGTATTTGAA (site ACCTTGCCTTT)
- recombinant UMI read abundance (log10): 0.00655

Sequence: ACGAAAACATGGACCGGTTTTCCCGGTAATCCGTATTTGCA (site ACGAAAACTTG)
- recombinant UMI read abundance (log10): 2.73

Sequence: ACGAAAACATGGACCGGTTTTCCCGGTAATCCGTATTTGCA (site AGGAAGACTTG)
- recombinant UMI read abundance (log10): 0

Sequence: ACGAGAACATGGACCGGTTTTCCCGGTAATCCGTATTTGAG (site ACAAGAACTCT)
- recombinant UMI read abundance (log10): 2.65

Sequence: ACGAGAACATGGACCGGTTTTCCCGGTAATCCGTATTTGAG (site ACCAGAACTCT)
- recombinant UMI read abundance (log10): 0.752

Sequence: ACGAGAACATGGACCGGTTTTCCCGGTAATCCGTATTTGAG (site ACGAGAACTCT)
- recombinant UMI read abundance (log10): 2.59

Sequence: ACGAGAACATGGACCGGTTTTCCCGGTAATCCGTATTTGAG (site ACTAGAACTCT)
- recombinant UMI read abundance (log10): 0.873

Sequence: ACGATTGCATGGACCGGTTTTCCCGGTAATCCGTATTTGGA (site ACGATTGCTTC)
- recombinant UMI read abundance (log10): 1.97

Sequence: ACGCACACATGGACCGGTTTTCCCGGTAATCCGTATTTGAA (site ACGCACACTTT)
- recombinant UMI read abundance (log10): 2.08

Sequence: ACGCATCCATGGACCGGTTTTCCCGGTAATCCGTATTTGAC (site ACACATCCTGT)
- recombinant UMI read abundance (log10): 1.31

Sequence: ACGCATCCATGGACCGGTTTTCCCGGTAATCCGTATTTGAC (site ACCCATCCTGT)
- recombinant UMI read abundance (log10): 0

Sequence: ACGCATCCATGGACCGGTTTTCCCGGTAATCCGTATTTGAC (site ACGCATCCTGT)
- recombinant UMI read abundance (log10): 1.8
